# Assay results: paper PMC5218480 (PLoS ONE, 2017)
# Tested on: MV-4-11 cells
# Assay: Gene expression microarray analysis (Affymetrix PrimeView) and GSEA
# Assay type: cell-based, human
# Parameters: RFU PODN (11730768_x_at) / Fold change /veh PODN (11730768_x_at) / RFU LINC00158 (11744669_a_at) / Fold change /veh LINC00158 (11744669_a_at) / RFU DUSP10 (11751237_a_at) / Fold change /veh DUSP10 (11751237_a_at) / RFU ID3 (11757404_x_at) / Fold change /veh ID3 (11757404_x_at) / RFU PLEKHG5 (11737974_s_at) / Fold change /veh PLEKHG5 (11737974_s_at) / RFU LRRC4B (11730491_at) / Fold change /veh LRRC4B (11730491_at) / RFU GIMAP4 (11747438_a_at) / Fold change /veh GIMAP4 (11747438_a_at) / RFU KRT8 (11758183_x_at) / Fold change /veh KRT8 (11758183_x_at) / RFU CNN1 (11734310_a_at) / Fold change /veh CNN1 (11734310_a_at) / RFU VPS37D (11726825_at) / Fold change /veh VPS37D (11726825_at) / RFU C10orf10 (11716522_x_at) / Fold change /veh C10orf10 (11716522_x_at) / RFU KIR2DL2 /// KIR2DL4 /// KIR2DL5A /// KIR2DL5B /// KIR2DS1 /// KIR2DS2 /// KIR2DS3 /// KIR2DS4 /// KIR3DL3 /// KIR3DL3 /// KIR3DS1 (11738374_at) / Fold change /veh KIR2DL2 /// KIR2DL4 /// KIR2DL5A /// KIR2DL5B /// KIR2DS1 /// KIR2DS2 /// KIR2DS3 /// KIR2DS4 /// KIR3DL3 /// KIR3DL3 /// KIR3DS1 (11738374_at) / RFU C1QL1 (11718748_at) / Fold change /veh C1QL1 (11718748_at) / RFU TMPRSS4 (11747572_a_at) / Fold change /veh TMPRSS4 (11747572_a_at) / RFU HAMP (11756126_x_at) / Fold change /veh HAMP (11756126_x_at) / RFU RNFT2 (11725882_a_at) / Fold change /veh RNFT2 (11725882_a_at) / RFU NR4A2 (11747474_a_at) / Fold change /veh NR4A2 (11747474_a_at) / RFU ABCC12 (11746883_a_at) / Fold change /veh ABCC12 (11746883_a_at) / RFU TMEM136 (11760407_x_at) / Fold change /veh TMEM136 (11760407_x_at) / RFU CLDN22 /// WWC2 (11732394_at) / Fold change /veh CLDN22 /// WWC2 (11732394_at) / RFU HLA-DPB1 (11760878_x_at) / Fold change /veh HLA-DPB1 (11760878_x_at) / RFU SPINT1 (11716480_a_at) / Fold change /veh SPINT1 (11716480_a_at) / RFU GAP43 (11754022_s_at) / Fold change /veh GAP43 (11754022_s_at) / RFU A4GNT (11735810_at) / Fold change /veh A4GNT (11735810_at) / RFU PRB3 (11715151_x_at) / Fold change /veh PRB3 (11715151_x_at) / RFU TUBB4B (11761932_at) / Fold change /veh TUBB4B (11761932_at) / RFU CAPN14 (11732068_a_at) / Fold change /veh CAPN14 (11732068_a_at) / RFU TMCC2 (11721928_a_at) / Fold change /veh TMCC2 (11721928_a_at) / RFU IRGQ (11745062_a_at) / Fold change /veh IRGQ (11745062_a_at) / RFU FAM174B (11720279_a_at) / Fold change /veh FAM174B (11720279_a_at) / RFU TMPRSS4 (11748680_a_at) / Fold change /veh TMPRSS4 (11748680_a_at) / RFU FAM212B (11763350_a_at) / Fold change /veh FAM212B (11763350_a_at) / RFU PLEKHG5 (11743358_a_at) / Fold change /veh PLEKHG5 (11743358_a_at) / RFU ZSCAN30 (11745921_a_at) / Fold change /veh ZSCAN30 (11745921_a_at) / RFU CMKLR1 (11741424_a_at) / Fold change /veh CMKLR1 (11741424_a_at) / RFU LOC101060620 /// MAPK8IP1 (11723275_at) / Fold change /veh LOC101060620 /// MAPK8IP1 (11723275_at) / RFU SPTSSB (11747773_x_at) / Fold change /veh SPTSSB (11747773_x_at) / RFU PRSS12 (11739890_at) / Fold change /veh PRSS12 (11739890_at) / RFU BIN1 (11741810_x_at) / Fold change /veh BIN1 (11741810_x_at) / RFU WNT11 (11732464_a_at) / Fold change /veh WNT11 (11732464_a_at) / RFU C10orf10 (11716521_a_at) / Fold change /veh C10orf10 (11716521_a_at) / RFU C5orf56 (11738089_at) / Fold change /veh C5orf56 (11738089_at) / RFU CYB561 (11721691_x_at) / Fold change /veh CYB561 (11721691_x_at) / RFU ANKRD19P (11752326_a_at) / Fold change /veh ANKRD19P (11752326_a_at) / RFU OR2T12 /// OR2T33 /// OR2T8 (11738714_s_at) / Fold change /veh OR2T12 /// OR2T33 /// OR2T8 (11738714_s_at) / RFU VCAN (11748164_a_at) / Fold change /veh VCAN (11748164_a_at) / RFU JSRP1 (11732532_at) / Fold change /veh JSRP1 (11732532_at) / RFU KRTAP10-11 (11738290_x_at) / Fold change /veh KRTAP10-11 (11738290_x_at) / RFU MYO3A (11730013_a_at) / Fold change /veh MYO3A (11730013_a_at) / RFU EBF3 (11725865_a_at) / Fold change /veh EBF3 (11725865_a_at) / RFU CAMK2N1 (11719241_x_at) / Fold change /veh CAMK2N1 (11719241_x_at) / RFU C5orf56 (11738088_a_at) / Fold change /veh C5orf56 (11738088_a_at) / RFU OLFML3 (11715873_a_at) / Fold change /veh OLFML3 (11715873_a_at) / RFU LOC100653217 /// NTM (11731650_a_at) / Fold change /veh LOC100653217 /// NTM (11731650_a_at) / RFU MAPK11 (11762145_a_at) / Fold change /veh MAPK11 (11762145_a_at) / RFU FIZ1 (11724087_x_at) / Fold change /veh FIZ1 (11724087_x_at) / RFU OASL (11726364_x_at) / Fold change /veh OASL (11726364_x_at) / RFU SOX15 (11748057_x_at) / Fold change /veh SOX15 (11748057_x_at) / RFU CD79A (11719716_a_at) / Fold change /veh CD79A (11719716_a_at) / RFU HIST1H1D (11736915_at) / Fold change /veh HIST1H1D (11736915_at) / RFU CASKIN2 (11723855_a_at) / Fold change /veh CASKIN2 (11723855_a_at) / RFU LOC730098 (11760151_x_at) / Fold change /veh LOC730098 (11760151_x_at) / RFU OR4N2 (11742367_at) / Fold change /veh OR4N2 (11742367_at) / RFU PRRT2 (11749266_a_at) / Fold change /veh PRRT2 (11749266_a_at) / RFU SNX32 (11753110_a_at) / Fold change /veh SNX32 (11753110_a_at) / RFU CDHR5 (11726645_a_at) / Fold change /veh CDHR5 (11726645_a_at) / RFU RCAN1 (11760418_a_at) / Fold change /veh RCAN1 (11760418_a_at) / RFU FAM167A (11723789_a_at) / Fold change /veh FAM167A (11723789_a_at) / RFU FAM26E (11764081_at) / Fold change /veh FAM26E (11764081_at) / RFU ISYNA1 (11749810_s_at) / Fold change /veh ISYNA1 (11749810_s_at) / RFU ACY1 (11761880_at) / Fold change /veh ACY1 (11761880_at) / RFU 11764098_at / Fold change /veh 11764098_at / RFU SAMD14 (11745864_x_at) / Fold change /veh SAMD14 (11745864_x_at) / RFU NPB (11741838_a_at) / Fold change /veh NPB (11741838_a_at) / RFU TMPRSS6 (11731388_a_at) / Fold change /veh TMPRSS6 (11731388_a_at) / RFU KRTAP10-2 (11738614_at) / Fold change /veh KRTAP10-2 (11738614_at) / RFU ARHGAP8 /// PRR5-ARHGAP8 (11727945_x_at) / Fold change /veh ARHGAP8 /// PRR5-ARHGAP8 (11727945_x_at) / RFU KRTAP5-7 /// NADSYN1 (11734609_at) / Fold change /veh KRTAP5-7 /// NADSYN1 (11734609_at) / RFU RASL12 (11751679_a_at) / Fold change /veh RASL12 (11751679_a_at) / RFU CDKN2B (11736163_a_at) / Fold change /veh CDKN2B (11736163_a_at) / RFU PRF1 (11729649_at) / Fold change /veh PRF1 (11729649_at) / RFU, ZNF638 /// ZNF638-IT1 / Fold change vs veh, ZNF638 /// ZNF638-IT1 / RFU, PANK3 / Fold change vs veh, PANK3 / RFU, SH3YL1 / Fold change vs veh, SH3YL1 / RFU, ZEB2 / Fold change vs veh, ZEB2 / RFU, NRIP1 / Fold change vs veh, NRIP1 / RFU, PTTG1IP / Fold change vs veh, PTTG1IP / RFU, CAPN2 / Fold change vs veh, CAPN2 / RFU, MED14 / Fold change vs veh, MED14 / RFU, SNORA58 / Fold change vs veh, SNORA58 / RFU, C1orf63 / Fold change vs veh, C1orf63 / RFU, LRRFIP1 / Fold change vs veh, LRRFIP1 / RFU, NDUFAF7 / Fold change vs veh, NDUFAF7 / RFU, SLC12A2 / Fold change vs veh, SLC12A2 / RFU, IBTK / Fold change vs veh, IBTK / RFU, ESF1 / Fold change vs veh, ESF1 / Fold change vs veh, TMEM50B / RFU, TAOK1 / Fold change vs veh, TAOK1 / RFU, ACBD3 / Fold change vs veh, ACBD3 / RFU, TMA16 / Fold change vs veh, TMA16 / RFU, RWDD3 / Fold change vs veh, RWDD3 / RFU, BCAT1 / Fold change vs veh, BCAT1 / RFU, EDEM3 / Fold change vs veh, EDEM3 / RFU, TMEM33 / Fold change vs veh, TMEM33 / RFU, WDR75 / Fold change vs veh, WDR75 / RFU, AHCTF1 / Fold change vs veh, AHCTF1 / RFU, TFRC / Fold change vs veh, TFRC / RFU, ZDHHC17 / Fold change vs veh, ZDHHC17 / RFU, NOM1 / Fold change vs veh, NOM1 / RFU, ARL8B / Fold change vs veh, ARL8B / RFU, ZBTB11 / Fold change vs veh, ZBTB11 / RFU, TAMM41 / Fold change vs veh, TAMM41 / RFU, KIAA1704 /// LOC100996395 / Fold change vs veh, KIAA1704 /// LOC100996395 / RFU, ING1 / Fold change vs veh, ING1 / RFU, TRMT61B / Fold change vs veh, TRMT61B / RFU, FUBP3 / Fold change vs veh, FUBP3 / RFU, TP53 / Fold change vs veh, TP53 / RFU, TNKS2 / Fold change vs veh, TNKS2 / RFU, ZFP14 / Fold change vs veh, ZFP14 / RFU, ACTR2 / Fold change vs veh, ACTR2 / RFU, PPP3R1 / Fold change vs veh, PPP3R1 / RFU, PIK3R1 / Fold change vs veh, PIK3R1 / RFU, HNRNPA1 / Fold change vs veh, HNRNPA1 / RFU, RNF170 / Fold change vs veh, RNF170 / RFU, ZNF28 / Fold change vs veh, ZNF28 / RFU, RNGTT / Fold change vs veh, RNGTT / RFU, OGT / Fold change vs veh, OGT / RFU, BRD1 / Fold change vs veh, BRD1 / RFU, MARS / Fold change vs veh, MARS / RFU, ZNF655 / Fold change vs veh, ZNF655 / RFU, FAHD1 / Fold change vs veh, FAHD1 / RFU, BDP1 / Fold change vs veh, BDP1 / RFU, LRRCC1 / Fold change vs veh, LRRCC1 / RFU, ARID1A / Fold change vs veh, ARID1A / RFU, ZNF146 / Fold change vs veh, ZNF146 / RFU, ZNF330 / Fold change vs veh, ZNF330 / RFU, GPN3 / Fold change vs veh, GPN3 / RFU, C9orf123 / Fold change vs veh, C9orf123 / RFU, N4BP2L2 / Fold change vs veh, N4BP2L2 / RFU, ARFIP1 / Fold change vs veh, ARFIP1 / RFU, FAM179B / Fold change vs veh, FAM179B / RFU, BCL10 / Fold change vs veh, BCL10 / RFU, UHRF1BP1L / Fold change vs veh, UHRF1BP1L / RFU, BET1 / Fold change vs veh, BET1 / RFU, CNOT2 / Fold change vs veh, CNOT2 / RFU, ZNF268 / Fold change vs veh, ZNF268 / Fold change vs veh, ZNF507 / RFU, DGCR2 / Fold change vs veh, DGCR2 / RFU, WDSUB1 / Fold change vs veh, WDSUB1 / Fold change vs veh, HSP90B1 /// MIR3652 / RFU, ADSS / Fold change vs veh, ADSS / RFU, GK / Fold change vs veh, GK / RFU, ZNF148 / Fold change vs veh, ZNF148 / RFU, TAF9 / Fold change vs veh, TAF9 / RFU, SLC1A5 / Fold change vs veh, SLC1A5 / RFU, SLMO2 / Fold change vs veh, SLMO2 / RFU, ABCC4 / Fold change vs veh, ABCC4 / RFU, LOC101060439 /// RAP1B / Fold change vs veh, LOC101060439 /// RAP1B / RFU, RFX7 / Fold change vs veh, RFX7 / RFU, GTPBP10 / Fold change vs veh, GTPBP10 / RFU, CNEP1R1 / Fold change vs veh, CNEP1R1 / RFU, BIVM-ERCC5 /// ERCC5 / Fold change vs veh, BIVM-ERCC5 /// ERCC5 / RFU, ILF3 / Fold change vs veh, ILF3 / RFU 11762660_at / Fold change /veh 11762660_at / RFU VCAN (11757783_s_at) / Fold change /veh VCAN (11757783_s_at) / RFU DDX43 (11728927_at) / Fold change /veh DDX43 (11728927_at) / RFU KRT8 (11758188_x_at) / Fold change /veh KRT8 (11758188_x_at) / RFU NKD1 (11759106_at) / Fold change /veh NKD1 (11759106_at) / RFU SRD5A1 (11742802_a_at) / Fold change /veh SRD5A1 (11742802_a_at) / RFU TPSAB1 /// TPSB2 (11721975_s_at) / Fold change /veh TPSAB1 /// TPSB2 (11721975_s_at) / RFU GSTM3 (11746129_a_at) / Fold change /veh GSTM3 (11746129_a_at) / RFU IL23R (11737362_x_at) / Fold change /veh IL23R (11737362_x_at) / RFU TMEM51 (11727254_a_at) / Fold change /veh TMEM51 (11727254_a_at) / RFU PIWIL2 (11732686_x_at) / Fold change /veh PIWIL2 (11732686_x_at) / RFU ORM1 (11744905_x_at) / Fold change /veh ORM1 (11744905_x_at) / RFU CCDC152 (11743942_at) / Fold change /veh CCDC152 (11743942_at) / RFU ECM1 (11717891_a_at) / Fold change /veh ECM1 (11717891_a_at) / RFU IL23R (11748794_a_at) / Fold change /veh IL23R (11748794_a_at) / RFU TNFAIP8L3 (11732012_x_at) / Fold change /veh TNFAIP8L3 (11732012_x_at) / RFU MBOAT4 (11741988_at) / Fold change /veh MBOAT4 (11741988_at) / RFU 11764193_at / Fold change /veh 11764193_at / RFU TMEM53 (11763286_at) / Fold change /veh TMEM53 (11763286_at) / RFU MAGEB2 (11727129_at) / Fold change /veh MAGEB2 (11727129_at) / RFU TMEM200A (11744735_a_at) / Fold change /veh TMEM200A (11744735_a_at) / RFU CCDC152 (11751479_a_at) / Fold change /veh CCDC152 (11751479_a_at) / RFU FAM211A (11726209_a_at) / Fold change /veh FAM211A (11726209_a_at) / RFU RGS16 (11746705_a_at) / Fold change /veh RGS16 (11746705_a_at) / RFU VCAN (11755009_s_at) / Fold change /veh VCAN (11755009_s_at) / RFU RHOB (11743442_s_at) / Fold change /veh RHOB (11743442_s_at) / RFU RGS16 (11720943_a_at) / Fold change /veh RGS16 (11720943_a_at) / RFU RGS16 (11720944_at) / Fold change /veh RGS16 (11720944_at) / RFU, VPS4B / Fold change vs veh, VPS4B / RFU, CREB1 / Fold change vs veh, CREB1 / RFU, DNAJC13 / Fold change vs veh, DNAJC13 / RFU, GNAQ / Fold change vs veh, GNAQ / RFU, CDK5R1 / Fold change vs veh, CDK5R1 / RFU, ZRANB3 / Fold change vs veh, ZRANB3 / RFU, CUL4A / Fold change vs veh, CUL4A / RFU, CCNY / Fold change vs veh, CCNY / RFU, UFL1 / Fold change vs veh, UFL1 / RFU, COG3 / Fold change vs veh, COG3 / RFU, DIAPH2 / Fold change vs veh, DIAPH2 / RFU, SKA2 / Fold change vs veh, SKA2 / RFU, AFF3 / Fold change vs veh, AFF3 / RFU, LMF1 / Fold change vs veh, LMF1 / RFU, IPO11 / Fold change vs veh, IPO11 / RFU, DFFB / Fold change vs veh, DFFB / RFU, FOXP1 / Fold change vs veh, FOXP1 / RFU, CARD8 / Fold change vs veh, CARD8 / RFU, STRN3 / Fold change vs veh, STRN3 / RFU, ADK / Fold change vs veh, ADK / RFU, RASSF2 / Fold change vs veh, RASSF2 / RFU, WIPF1 / Fold change vs veh, WIPF1 / RFU, LARP1B / Fold change vs veh, LARP1B / RFU, RASA1 / Fold change vs veh, RASA1 / RFU, RB1 / Fold change vs veh, RB1 / RFU, PPFIA1 / Fold change vs veh, PPFIA1 / RFU, MAT2A / Fold change vs veh, MAT2A / RFU, CCT5 / Fold change vs veh, CCT5 / RFU, WDR92 / Fold change vs veh, WDR92 / RFU, CUX1 / Fold change vs veh, CUX1 / RFU, TTC7A / Fold change vs veh, TTC7A / RFU, TMEM135 / Fold change vs veh, TMEM135 / RFU, DEPTOR / Fold change vs veh, DEPTOR / RFU, CPM / Fold change vs veh, CPM / RFU, DNAJB6 / Fold change vs veh, DNAJB6 / RFU, CACNA2D3 / Fold change vs veh, CACNA2D3 / RFU, DTX4 / Fold change vs veh, DTX4 / RFU, TFCP2 / Fold change vs veh, TFCP2 / RFU, GMCL1 /// GMCL1P1 / Fold change vs veh, GMCL1 /// GMCL1P1 / RFU, AEBP2 / Fold change vs veh, AEBP2 / RFU, SNHG1 /// SNORD22 /// SNORD25 /// SNORD26 /// SNORD27 /// SNORD28 /// SNORD29 /// SNORD31 / Fold change vs veh, SNHG1 /// SNORD22 /// SNORD25 /// SNORD26 /// SNORD27 /// SNORD28 /// SNORD29 /// SNORD31 / Fold change (Aza/veh), C12orf56 (ProbeSet 11735607_a_at) / Fold change (ACY-1035/veh), C12orf56 (ProbeSet 11735607_a_at) / Fold change (Aza/veh), FGFR1OP (ProbeSet 11751329_s_at) / Fold change (ACY-1035/veh), FGFR1OP (ProbeSet 11751329_s_at) / Fold change (Aza/veh), VPS36 (ProbeSet 11739960_a_at) / Fold change (ACY-1035/veh), VPS36 (ProbeSet 11739960_a_at) / RFU SYPL1 (11715823_x_at) / Fold change /veh SYPL1 (11715823_x_at) / RFU IGFBP7 (11715501_s_at) / Fold change /veh IGFBP7 (11715501_s_at) / RFU REEP3 (11722064_at) / Fold change /veh REEP3 (11722064_at) / RFU IGLL1 (11728026_x_at) / Fold change /veh IGLL1 (11728026_x_at): dose or concentration left out as unconfirmed
# Details: MV-4-11 cells, 48 hours
structure (smiles),measurement,value
Nc1ccc(-c2cccs2)cc1NC(=O)c1ccc2c(c1)cc(C1CC1)n2CCN1CCOCC1 [ACY-1035],Fold change /veh MAPK11 (11762145_a_at),0.89
